From US7169815B2, “3-methoxybenzyl thiourea derivatives and improved lipid compositions containing same” (The United States of America as represented by the …, priority 2000, dated 2007)

What was measured:
[1] = UVB and UVA molar absorptivities in chloroform; format: physicochemical; conditions: 0.01 mg/ml in chloroform
Experimental: The compounds synthesized in Example 3 were tested to determine their ability to absorb […] UVA light. UV spectra of quantitatively weighed and diluted samples (0.01 mg/ml) in chloroform were scanned from 244–450 nm at 240 nm/min on a Beckman DU 640 spectrophotometer (Beckman Coulter, Inc., Fullerton, Calif.). Amax in the 280–320 nm range was determined and converted to molar absorptivity for the UVB region, and Amax in the 320–400 nm range was determined and converted to molar absorptivity for the UVA region.

[2] = Oxidative Stability Index (OSI) of refined meadowfoam seed oil plus additives; conditions: 130° C.; for increase in the OSI time: refined meadowfoam seed oil, versus oil with no additives
Source text: (§1) A presently preferred method of determining oxidative stability of lipids and oils employs the Oxidative Stability Index (OSI), which determines the oxidative stability of an oil by passing air through a sample under stringent temperature control. (Firestone, Oxidative Stability Index (OSI): Official Methods of Recommended Practices of the American Oil Chemists' Society (AOCS), 4th Ed. American Oil Chemists Society, Champaign, Ill., AOCS Official Method Cd 12b-92, 1993.) In this method, a stream of air is passed through the oil sample, which aids in the rapid degradation of the triglyceride into volatile organic acids. The air stream flushes the volatile acids from the oil into a conductivity cell containing water where the acids are solubilized. These acids, once dissolved in the water solution, disassociate into ions, thus changing the conductivity of the water. Therefore, a continuous measure of the conductivity of the cell by computer will indicate when a rapid rise in the conductivity occurs that corresponds to the induction point, oxidative failure of the sample. The time to the induction point is the OSI time. […] Saturated fatty acid methyl ester (FAME) standards commercially available from Alltech Associates (Deerfield, Ill.) may be used to calibrate the OSI determinations.
(§2) OSI determinations may be performed on an oxidative stability instrument manufactured by Omnion (Rockland, Mass.) using the AOCS method described in the above-disclosed Firestone reference. Lipid or oil samples may be run at 110° C. and FAMEs may be tested at 90° C., with air flow set at 35 kPa with a resulting velocity of about 140 ml/min. A presently preferred method for determining OSI values is described by T. A. Isbell et al., “Oxidative Stability Index of Vegetable Oils in Binary Mixtures with Meadowfoam Oil,” Industrial Crops and Products 9, 115–123 (1999).
Unless otherwise stated, Oxidative Stability Index (OSI) values were determined on 5.00 ±0.05 g lipid or oil samples in triplicate according to AOCS Official Method Cd 12b-92 (AOCS, 1993) at 90° C., 110° C. and/or 130° C. on an oxidative stability instrument manufactured by Omnion (Rockland, Mass.). Details of the procedure have been published by Isbell et al., “Oxidative Stability Index of Vegetable Oils in Binary Mixtures with Meadowfoam Oil,” Ind. Crops Prod. 9, 115–123 (1999). When compounds of the present invention were added to the lipid or oil sample being tested, the compounds (0.1% to 1.0% by weight) were added to the test lipid or oil (20 g) and dissolved or dispersed at room temperature before triplicate 5.00 g samples of lipid or oil with an added compound of the invention were weighed into the OSI test tube.
The 1,3-di(3-methoxybenzyl) thiourea prepared in Example 3 was mixed at 0.1%, 0.5% or 1.0% with refined meadowfoam seed oil (Lot #CW-4551, The Fanning Corp) and the oxidative stability of the mixtures was compared to that of refined meadowfoam seed oil at 130° C. The OSI times were 49.8 h, 159 h and 172 h, respectively, for the mixtures containing the thiourea compared to an OSI time of 14.9 h for this lot of refined meadowfoam seed oil with no additives at 130° C.
Thus, 1,3-bis(2-methoxyphenyl)-2-thiourea (Aldrich Chem Co.) added at 0. […] Likewise, 1,3-bis(3-methoxyphenyl)-2-thiourea at 0. 1% added to refined meadowfoam oil gave an OSI time of 27.0 h, an […] lower value than for the 1,3-di-(3-methoxybenzyl) thiourea produced in Example 3.

[3] = OSI test of unrefined (crude) meadowfoam seed oil, alone or mixed with additive; conditions: 110° C.
Source text: as §1, §2
(§3) Unless otherwise stated, Oxidative Stability Index (OSI) values were determined on 5.00 ±0.05 g lipid or oil samples in triplicate according to AOCS Official Method Cd 12b-92 (AOCS, 1993) at 90° C., 110° C. and/or 130° C. on an oxidative stability instrument manufactured by Omnion (Rockland, Mass.). Details of the procedure have been published by Isbell et al., “Oxidative Stability Index of Vegetable Oils in Binary Mixtures with Meadowfoam Oil,” Ind. Crops Prod. 9, 115–123 (1999). When compounds of the present invention were added to the lipid or oil sample being tested, the compounds (0.1% to 1.0% by weight) were added to the test lipid or oil (20 g) and dissolved or dispersed at room temperature before triplicate 5.00 g samples of lipid or oil with an added compound of the invention were weighed into the OSI test tube. […]

[4] = Oxidative Stability by Rotating Pressure Vessel (RBOT) of refined meadowfoam seed oil plus thiourea compounds
Source text: Another presently preferred method of determining oxidative stability of lipids and oils employs the Oxidative Stability by Rotating Pressure Vessel (RBOT) test. In this test, oxidative stability, determined according to the ASTM D2272-98 test method (ASTM, 2001, “Standard Test Method for Oxidation Stability of Steam Turbine Oils by Rotating Pressure Vessel,” in Book of Standards, Vol. 05.01., American Society for Testing and Materials, West Conshohocken, Pa.), measures the time for oxygen pressure to decrease in a closed stainless steel vessel containing a lipid or oil when heated with a copper coil catalyst. Oxygen taken up by the lipid or oil during the reaction is an indication of oil degradation.
In these experiments, Oxidative Stability by Rotating Pressure Vessel (RBOT) tests were performed with different 3-methoxybenzyl thiourea compounds synthesized in Example 3 that were mixed in different quantities with different mono- and polyunsaturated vegetable oils. Hexane was used to clean and store the copper coils, but all other aspects of the Oxidative Stability by Rotating Pressure Vessel (RBOT) test were the same as in the standard ASTM D2272–98 test method (ASTM, 2001, “Standard Test Method for Oxidation Stability of Steam Turbine Oils by Rotating Pressure Vessel,” in Book of Standards, Vol. 05.01., American Society for Testing and Materials, West Conshohocken, Pa.).

[5] = OSI test of jojoba oil mixed with additive; conditions: 110° C.
Source text: as §1, §2, §3

**Q.** For `COc1cccc(CNC(=S)NCc2cccc(OC)c2)c1` [1,3-di(3-methoxybenzyl) thiourea], which “UVBMAX Molar Absorptivity” value ([1]; Amax in 280–320 nm) is on record?
**A.** Its value is 5367.

**Q.** And the “UVAMAX Molar Absorptivity” value ([1]; Amax in 320–400 nm)?
**A.** The value was 0.0.

**Q.** What about the OSI Time ([2]; refined meadowfoam seed oil Lot #CW-4551, 0.1% additive) of the same compound?
**A.** The OSI Time was 49.8 h.

**Q.** What about the OSI Time ([2]; refined meadowfoam seed oil Lot #CW-4551, 0.5% additive) of the same compound?
**A.** Its OSI Time is 159 h.

**Q.** What about the OSI Time ([2]; refined meadowfoam seed oil Lot #CW-4551, 1.0% additive) of the same compound?
**A.** Its OSI Time is 172 h.

**Q.** What about the “OSI Time” value ([2]; refined meadowfoam seed oil plus additive 0.1%) of the same compound?
**A.** The value was 49.8 h.

**Q.** What about the “OSI Time” value ([2]; refined meadowfoam seed oil plus additive 0.5%) of the same compound?
**A.** Its value is 159 h.

**Q.** And the “OSI Time” value ([2]; refined meadowfoam seed oil plus additive 1.0%)?
**A.** Its value is 172 h.

**Q.** And the “increase in the OSI time” value ([2]; 0.1% additive)?
**A.** The value was 234%.

**Q.** What about the “increase in the OSI time” value ([2]; 0.5% additive) of the same compound?
**A.** Its value is 967%.

**Q.** What about the “increase in the OSI time” value ([2]; 1.0% additive) of the same compound?
**A.** Its value is 1054%.

**Q.** What about the OSI Time ([3]; 0.1% additive) of the same compound?
**A.** Its OSI Time is 76.4 h.

**Q.** And the “improvement of OSI time compared to meadowfoam oil alone” value ([3]; 0.1% additive)?
**A.** The value was 15%.

**Q.** What about the OSI Time ([3]; 1% additive) of the same compound?
**A.** Its OSI Time is 211 h.

**Q.** And the “improvement of OSI time compared to meadowfoam oil alone” value ([3]; 1% additive)?
**A.** Its value is 218%.

**Q.** And the “Oxidative Stability (RBOT)” value ([4]; Refined Meadowfoam Seed Oil plus 0.05% compound)?
**A.** Its value is 33 min.

**Q.** And the “Oxidative Stability (RBOT)” value ([4]; Refined Meadowfoam Seed Oil plus 0.1% compound)?
**A.** Its value is 40 min.

**Q.** And the “Oxidative Stability (RBOT)” value ([4]; Refined Meadowfoam Seed Oil plus 0.2% compound)?
**A.** The value was 41 min.

**Q.** What about the “Oxidative Stability (RBOT)” value ([4]; Refined Meadowfoam Seed Oil plus 1.0% compound) of the same compound?
**A.** Its value is 41 min.

**Q.** What about the “Oxidative stability in the RBOT test, in words” value ([4]; addition of 0.1% compound) of the same compound?
**A.** The value was “doubled”.

**Q.** And the OSI Time ([5]; 0.1% additive)?
**A.** The OSI Time was 64.2 h.

**Q.** And the “improvement of OSI time compared to jojoba oil alone” value ([5]; 0.1% additive)?
**A.** The value was 30%.

**Q.** And the OSI Time ([5]; 1% additive)?
**A.** Its OSI Time is 168 h.

**Q.** And the “improvement of OSI time compared to jojoba oil alone” value ([5]; 1% additive)?
**A.** Its value is 241%.
